Laboratory results reported in PubChem BioAssay AID2060910 (Molecular Pharmacology Branch, DTP, NCI, 2025).

Tested on: 242566-281-R-J2-PDC complex spheroid viability
Experiment: Anticancer human tumor 242566-281-R-J2-PDC patient-derived pancreatic carcinoma cell line growth inhibition [RAS]
Conditions: for IC50: curve of first compound; for viability, T/C: stronger effect = lower value
Procedure, shortened: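 Tumour cells grown as complex spheroids with HUVEC endothelial cells and mesenchymal stem cells, treated with RAS pathway inhibitor combinations. Each agent spans half-log steps from near clinical Cmax, or 10 microM where Cmax is unknown.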
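Note: spheroids exposed to compound for 7 days before readout.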
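Throughout, for viability, T/C: 100% = DMSO vehicle control wells.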

CC1(C)CCC(Nc2ncc(C(F)(F)F)c(-c3c[nH]c4c(P(C)(C)=O)c(C#N)ccc34)n2)CN1 (stereo not drawn) + C=CC(=O)N1CCN(c2nc(OCC3CCCN3C)nc3c(F)c(-c4nc(N)cc(C)c4C(F)(F)F)c(Cl)cc23)C(C)C1 showed an IC50 (second compound 0.00316 µM) of over 0.3 µM, an IC50 (second compound 0.01 µM) of over 0.3 µM and an IC50 (second compound 0.0316 µM) of over 0.3 µM. The IC50 (second compound 0.1 µM) was over 0.3 µM, the IC50 (second compound 0.316 µM) was over 0.3 µM and the IC50 (second compound 1 µM) was over 0.3 µM. For the same compound, the viability, T/C (second compound 0.00316 µM, first compound 0.000949 µM) was 109%, the viability, T/C (second compound 0.00316 µM, first compound 0.003 µM) was 161% and the viability, T/C (second compound 0.00316 µM, first compound 0.00949 µM) was 154%. For the same compound, the viability, T/C (second compound 0.00316 µM, first compound 0.03 µM) was 128%, the viability, T/C (second compound 0.00316 µM, first compound 0.0949 µM) was 146% and the viability, T/C (second compound 0.00316 µM, first compound 0.3 µM) was 135%. For the same compound, the viability, T/C (second compound 0.01 µM, first compound 0.000949 µM) was 137%, the viability, T/C (second compound 0.01 µM, first compound 0.003 µM) was 151% and the viability, T/C (second compound 0.01 µM, first compound 0.00949 µM) was 142%. For the same compound, the viability, T/C (second compound 0.01 µM, first compound 0.03 µM) was 124%, the viability, T/C (second compound 0.01 µM, first compound 0.0949 µM) was 158% and the viability, T/C (second compound 0.01 µM, first compound 0.3 µM) was 129%. For the same compound, the viability, T/C (second compound 0.0316 µM, first compound 0.000949 µM) was 114%, the viability, T/C (second compound 0.0316 µM, first compound 0.003 µM) was 173% and the viability, T/C (second compound 0.0316 µM, first compound 0.00949 µM) was 133%. For the same compound, the viability, T/C (second compound 0.0316 µM, first compound 0.03 µM) was 113%, the viability, T/C (second compound 0.0316 µM, first compound 0.0949 µM) was 138% and the viability, T/C (second compound 0.0316 µM, first compound 0.3 µM) was 132%. It also gave a viability, T/C (second compound 0.1 µM, first compound 0.000949 µM) of 151%, a viability, T/C (second compound 0.1 µM, first compound 0.003 µM) of 130% and a viability, T/C (second compound 0.1 µM, first compound 0.00949 µM) of 103%. It also gave a viability, T/C (second compound 0.1 µM, first compound 0.03 µM) of 137%, a viability, T/C (second compound 0.1 µM, first compound 0.0949 µM) of 138% and a viability, T/C (second compound 0.1 µM, first compound 0.3 µM) of 144%. It also gave a viability, T/C (second compound 0.316 µM, first compound 0.000949 µM) of 152%, a viability, T/C (second compound 0.316 µM, first compound 0.003 µM) of 144% and a viability, T/C (second compound 0.316 µM, first compound 0.00949 µM) of 147%. For the same compound, the viability, T/C (second compound 0.316 µM, first compound 0.03 µM) was 109%, the viability, T/C (second compound 0.316 µM, first compound 0.0949 µM) was 143% and the viability, T/C (second compound 0.316 µM, first compound 0.3 µM) was 149%. For the same compound, the viability, T/C (second compound 1 µM, first compound 0.000949 µM) was 130%, the viability, T/C (second compound 1 µM, first compound 0.003 µM) was 139% and the viability, T/C (second compound 1 µM, first compound 0.00949 µM) was 142%. The viability, T/C (second compound 1 µM, first compound 0.03 µM) was 123%, the viability, T/C (second compound 1 µM, first compound 0.0949 µM) was 128% and the viability, T/C (second compound 1 µM, first compound 0.3 µM) was 121%.
CC(=O)OC12COC1CC(O)C1(C)C(=O)C(O)C3=C(C)C(OC(=O)C(O)C(NC(=O)OC(C)(C)C)c4ccccc4)CC(O)(C(OC(=O)c4ccccc4)C21)C3(C)C (stereo not drawn) was tested, and the viability, T/C (compound 0.0316 µM) was 54.6% [middle of 4 runs], the viability, T/C (compound 0.316 µM) was 47.6% [middle of 4 runs] and the viability, T/C (compound 1 µM) was 43.5% [middle of 4 runs]. The viability, T/C (compound 3.16 µM) was 51.3% [middle of 4 runs].
Compound Cc1nc(N2CCC3(CC2)COC(C)C3N)c(CO)nc1Sc1ccnc(N)c1Cl (stereo not drawn) + CCn1c(-c2cccnc2C(C)OC)c2c3cc(ccc31)N1CCOC(CC(NC(=O)C(C(C)C)N(C)C(=O)C3(F)CCN(C(=O)C#CC(C)(C)N(C)C)CC3)C(=O)N3CCCC(N3)C(=O)OCC(C)(C)C2)C1 has an IC50 (second compound 0.000949 µM) of over 10 µM, an IC50 (second compound 0.003 µM) of over 10 µM and an IC50 (second compound 0.00949 µM) of over 10 µM. The IC50 (second compound 0.03 µM) was over 10 µM, the IC50 (second compound 0.0949 µM) was over 10 µM and the IC50 (second compound 0.3 µM) was over 10 µM. It also gave a viability, T/C (second compound 0.000949 µM, first compound 0.0316 µM) of 94.9%, a viability, T/C (second compound 0.000949 µM, first compound 0.1 µM) of 93.2% and a viability, T/C (second compound 0.000949 µM, first compound 0.316 µM) of 63.1%. For the same compound, the viability, T/C (second compound 0.000949 µM, first compound 1 µM) was 77.4%, the viability, T/C (second compound 0.000949 µM, first compound 3.16 µM) was 71.5% and the viability, T/C (second compound 0.000949 µM, first compound 10 µM) was 53.4%. It also gave a viability, T/C (second compound 0.003 µM, first compound 0.0316 µM) of 102%, a viability, T/C (second compound 0.003 µM, first compound 0.1 µM) of 80% and a viability, T/C (second compound 0.003 µM, first compound 0.316 µM) of 80%. It also gave a viability, T/C (second compound 0.003 µM, first compound 1 µM) of 81.5%, a viability, T/C (second compound 0.003 µM, first compound 3.16 µM) of 74% and a viability, T/C (second compound 0.003 µM, first compound 10 µM) of 52.8%. It also gave a viability, T/C (second compound 0.00949 µM, first compound 0.0316 µM) of 98.8%, a viability, T/C (second compound 0.00949 µM, first compound 0.1 µM) of 73.4% and a viability, T/C (second compound 0.00949 µM, first compound 0.316 µM) of 67.3%. It also gave a viability, T/C (second compound 0.00949 µM, first compound 1 µM) of 71%, a viability, T/C (second compound 0.00949 µM, first compound 3.16 µM) of 67.1% and a viability, T/C (second compound 0.00949 µM, first compound 10 µM) of 68.6%. It also gave a viability, T/C (second compound 0.03 µM, first compound 0.0316 µM) of 97.6%, a viability, T/C (second compound 0.03 µM, first compound 0.1 µM) of 85.5% and a viability, T/C (second compound 0.03 µM, first compound 0.316 µM) of 82%. For the same compound, the viability, T/C (second compound 0.03 µM, first compound 1 µM) was 73.7%, the viability, T/C (second compound 0.03 µM, first compound 3.16 µM) was 60.7% and the viability, T/C (second compound 0.03 µM, first compound 10 µM) was 61.6%. It also gave a viability, T/C (second compound 0.0949 µM, first compound 0.0316 µM) of 75.1%, a viability, T/C (second compound 0.0949 µM, first compound 0.1 µM) of 77.3% and a viability, T/C (second compound 0.0949 µM, first compound 0.316 µM) of 79.7%. The viability, T/C (second compound 0.0949 µM, first compound 1 µM) was 71.1%, the viability, T/C (second compound 0.0949 µM, first compound 3.16 µM) was 54.3% and the viability, T/C (second compound 0.0949 µM, first compound 10 µM) was 61.9%. It also gave a viability, T/C (second compound 0.3 µM, first compound 0.0316 µM) of 73.7%, a viability, T/C (second compound 0.3 µM, first compound 0.1 µM) of 72.8% and a viability, T/C (second compound 0.3 µM, first compound 0.316 µM) of 61.5%. For the same compound, the viability, T/C (second compound 0.3 µM, first compound 1 µM) was 50.5%, the viability, T/C (second compound 0.3 µM, first compound 3.16 µM) was 49.9% and the viability, T/C (second compound 0.3 µM, first compound 10 µM) was 51.5%.
